# Measurements published in US9975853B2, “Tetrahydroisoquinolinone derivatives and their use in the inhibition of the HSP70 protein” (Julius-Maximilians-Universitaet Wuerzburg, priority 2014, dated 2018).
# Columns and labels:
# INA-6 = assay: Cell viability assay (annexin V-FITC/propidium iodide, flow cytometry) in INA-6 multiple myeloma cells; assay type: cell-based, human
# Procedure: The effect of pharmacological Hsp70 inhibition on cell viability was analyzed after 72 hours of treatment in both non-malignant (mononuclear cells from the peripheral blood) and malignant lymphocytes (multiple myeloma cells). The mononuclear cells were separated from the peripheral blood of healthy donors by Ficoll-Hypaque density gradient centrifugation. The human cell line INA-6 represents a well-established model for multiple myeloma. The percentage of viable and apoptotic cell fractions was assessed using an annexin V-FITC/propidium iodide (PI) staining kit (Bender MedSystems, Vienna, Austria) according to manufacturer's instructions. In brief, cells were washed in PBS, incubated for 10 min in 100 ml binding buffer (10 mM HEPES/NaOH, pH 7.4, 140 mM NaCl, 2.5 mM CaCl2) containing 2.5 ml annexin V-FITC mix and 1 mg/ml propidium iodide (PI), subsequently diluted with 100 ml binding buffer and analyzed by flow cytometry (FACSCalibur/CELLQuest; Becton Dickinson, Heidelberg, Germany). Whereas viable cells are negative for both, annexin V-FITC and PI, early apoptotic cells show a positive annexin V-FITC staining, and cells in a late apoptotic stage which lose their membrane integrity additionally incorporate DNA-binding PI. To establish kill curves, concentrations of the tested compounds were titrated, and the measured viable cell fractions were further analyzed using the Prism Calculation Software (GraphPad Software Inc., La Jolla, USA).
# In FIG. 2A Western blot analyses of caspases 9 and 3, and the caspase substrate PARP (upper panel), and viability analyses (lower panel) of INA-6 MM cells upon treatment with trans-7b for 24 hours are shown. INA-6 cells were either incubated with DMSO (as a solvent control) or with 0.6 μM of trans-7b, and additionally incubated either with DMSO or the pan-caspase inhibitor Z-VAD-FMK prior to analyses by Western or viability assessment (without Z-VAD-FMK co-treatment) by Annexin V/propidum iodide double staining. For Western analyses INA-6 cell pellets were dissolved in lysis buffer (20 mM HEPES (pH 7.9), 350 mM NaCl, 1 mM MgCl2, 0.5 mM EDTA, 0.1 mM EGTA, 1% NP40, 0.5 mM dithiothreiol (DTT), 1 mM Na3VO4, 0.1 mM PMSF and 1 μg/ml aprotinin). Lysates were cleared by centrifugation, measured by quantitative protein assay (Bio-Rad, München, Germany) and subjected to SDS gel electrophoresis. Proteins were transferred onto nitrocellulose membranes (Schleicher & Schuell, Dassel, Germany), incubated with antibodies specific for caspase 9, caspase 3 or PARP (Cell Signaling Technology, Frankfurt a.Main, Germany) according to standard procedures and visualized with secondary anti-rabbit horseradish peroxidase (HRP)-conjugated antibodies using an enhanced chemoluminescence detection system (ECL, Amersham, Freiburg, Germany). […] Annexin V/propidium iodide (PI) staining was performed using a fluorescein isothiocyanate (FITC) conjugated recombinant human annexin/propidium iodide kit (BenderMedSystems, Vienna, Austria) according to the manufacturer's instructions. INA-6 cells were washed in PBS, incubated for 15 minutes in 100 ml binding buffer (10 mM HEPES/NaOH, pH 7.4, 140 mM NaCl, 2.5 mM CaCl2) containing 2.5 mL annexin V-FITC mix and 1 mg/ml PI and analyzed by flow cytometry (FACSCalibur/CELLQuest; Becton Dickinson, Heidelberg, Germany). Whereas early apoptosis is characterized by positive annexin V-FITC staining reaction, cells in a late apoptotic stage lose their membrane integrity and additionally incorporate PI. Thus, the fraction of viable cells remains negative for both annexin V-FITC and PI. […] Based on the above described experiments also viability analyses of INA-6 in comparison with non-malignant PBMCs were performed choosing a longer incubation time (72 hours) as shown in FIG. 2B or C. Raw data of three independent experiments have been calculated to establish means, standard deviation and dose-effect curves of trans-7b.
# INA-6 cells = assay: Viability of INA-6 cells under concomitant treatment with HSP90 inhibitor NVP-AUY922; assay type: cell-based, human; conditions: AUY922 7.5 nM plus trans-7b 3.5 μM, sublethal concentrations
# Procedure: The heat shock protein HSP90, which critically cooperates with HSP72 and HSP73 to mediate a chaperone function for a multitude of proteins, is regarded as a reasonable therapeutic target in MM. […] Therefore, potential effects of a concomitant treatment of trans-7b with the HSP90 inhibitor NVP-AUY922 on viability of INA-6 cells were analyzed. INA-6 cells were incubated either with DMSO (as a solvent control), sublethal concentrations of AUY922 (7.5 nM) or trans-7b (3.5 μM) or with a combination of both. Viability was measured by Annexin V-FITC/propidium iodide double staining (BenderMedSystems, Vienna, Austria) according to the manufacturer's instructions. Cells were washed in PBS, incubated for 15 minutes in 100 ml binding buffer (10 mM HEPES/NaOH, pH 7.4, 140 mM NaCl, 2.5 mM CaCl2) containing 2.5 mL annexin V-FITC mix and 1 mg/ml PI and analyzed by flow cytometry (FACSCalibur/CELLQuest; Becton Dickinson, Heidelberg, Germany). Whereas early apoptosis is characterized by positive annexin V-FITC staining reaction, cells in a late apoptotic stage lose their membrane integrity and additionally incorporate PI. […] Raw data of three independent measurements were set in relation to their respective DMSO controls, and means and standard deviations were calculated using the Graphpad Prism software (Graphpad, La Jolla, USA).
compound,measurement,setting,value
"COc1ccc(C2C(C(=O)Nc3cccc(C)n3)c3ccccc3C(=O)N2c2ccccc2)cc1 (stereo not drawn) [trans-7b, trans-3-(4-Methoxyphenyl)-N-(6-methylpyridin-2-yl)-1-oxo-2-phenyl-1,2,3,4-tetrahydroisoquinoline-4-carboxamide]",viability of INA-6 cells in comparison with the DMSO control (100%),"INA-6; 0.6 μM, 24 hours, Annexin V/propidium iodide",drastically decreased
same,"sensitivity of INA-6 tumor cells (viability, dose-effect curves)","INA-6; 72 hours, three independent experiments",highly sensitive (in a low micromolar range)
same,EC50,"INA-6; Homo sapiens, INA-6, 72 h, INA-6 multiple myeloma cells, 72 hours of treatment, viable cell fraction, mean of at least three determinations, read-out: INA-6 EC50(±sdv)",0.41 µM
same,effect on the apoptotic effect of the HSP90 inhibitor NVP-AUY922 (viability),INA-6 cells,strongly enhanced
